From US6335350B1, “Acetamide and substituted acetamide-containing thiourea inhibitors of herpes viruses” (American Home Products Corporation, priority 1998, dated 2002)
Values after ≈ are worked out from the molar mass of the structure shown.

Key:
HSV-1 = test: HSV Antiviral (ELISA) Assay; type: cell-based, herpes simplex virus type 1; conditions: Vero cells, HSV-1; for IC50: Human alphaherpesvirus 1, Vero, read-out: IC50 Ug/ml HSV
Description: Vero cells (ATCC #CCL-81) are plated on 96-well tissue culture plates at 3.5×10^4 cells per 100 μl tissue culture DMEM (Dulbecco's modified Eagle media) supplemented with 2% fetal bovine serum (FBS) in each well. After overnight incubation @ 37° C. (in 5% CO2) and 30 minutes prior to infection with HSV-1 (multiplicity of infection equal to 0.006), cells are either untreated, or treated with test compound (multiple concentrations) or reference standard drug control. After approximately 24 hours post-infection incubation @ 37° C. (in 5% CO2), cells are fixed for ELISA assay. The primary antibody is murine anti-HSV glycoprotein D monoclonal primary antibody and the secondary antibody is goat anti-mouse IgG linked to β-galactosidase. Thus the extent of viral replication is determined by assessing β-galactosidase activity by quantifying the generation of the 4-methyl umbelliferone fluorescent cleavage product after addition of the methyl umbelliferyl-β-D-galactoside (Sigma #M1633) substrate on a microfluorimeter (365 nm for excitation and 450 nm for emission). Antiviral activity (IC50) of the test compound is determined by comparing the flourescence obtained in absence of compound to that obtained in the presence of compound.

VZV strain Ellen = test: VZV Antiviral (ELISA) Assay; type: cell-based, varicella-zoster virus; conditions: human foreskin fibroblast cells; for IC50 / inhibition at 10 µg/mL: Human alphaherpesvirus 3, Fibroblast; for IC50: read-out: IC50 Ug/ml VZV; for inhibition at 10 µg/mL: read-out: % inhibition 10 ug/ml VZV, 10 ug/ml
Description: For the generation of stock VZV to be used in the assay, VZV strain Ellen (ATCC #VR-1367) is used to infect human foreskin fibroblast (HFF) cells at low multiplicity (less than 0.1) and incubated overnight at 37° C. in 5% CO2. After the overnight incubation, the mixture of uninfected and VZV-infected HFF infected cells are then harvested and added to each well of 96-well plates (3.5×10^4 cells in 100 μl DMEM supplemented with 2% FBS) which contain test compound or the reference standard drug control (in 100 μl DMEM supplemented with 2% FBS per well). These cells are incubated for three days at 37° C. in 5% CO2, then fixed for ELISA assay. The primary antibody is murine anti-VZV glycoprotein II monoclonal antibody (Applied Biosystems, Inc. #13-145-100) and the secondary antibody is goat anti-mouse IgG linked to β-galactosidase. Thus the extent of viral replication is determined by assessing β-galactosidase activity by quantifying the generation of the 4-methyl umbelliferone fluorescent cleavage product after addition of the methyl umbelliferyl-β-D-galactoside (Sigma #M1633) substrate on a microfluorimeter (365 nm for excitation and 450 nm for emission). Antiviral activity (IC50) of the test compound is determined by comparing the flourescence obtained in absence of compound to that obtained in the presence of compound.

HCMV wild-type = test: HCMV yield assay; type: cell-based, human cytomegalovirus; conditions: human foreskin fibroblasts; for IC50: Human betaherpesvirus 5, Fibroblast, read-out: IC50 Ug/ml HCMV
Description: Yield assay. Monolayer cultures of human foreskin fibroblasts are infected with HCMV wild-type, typically at a multiplicity of infection equal to 0.2, in the presence of inhibitor compound (varying concentrations). At three days post-infection, total virus produced in these cultures (i.e. virus yield) is assessed by harvesting and titering the virus in 12-well plates of cultured human foreskin fibroblasts (done in the absence of inhibitor). Plaques are quantified at 2 weeks post-infection. An inhibitor of HCMV is identified by the reduction in titer of virus yield in the presence, compared to the titer in the absence of compound. In this assay, the relative anti-HCMV activity of an inhibitor is typically determined by calculating the IC50 or IC90 value, that is, the amount of compound required to reduce the virus yield by 50% or 90%, respectively. Table I describes IC50 data for compounds tested against HCMV.

Row | Structure (SMILES) | IC50 Ug/ml HSV (HSV-1) [Ug/ml] | % inhibition 10 ug/ml VZV (VZV strain Ellen) [%] | IC50 Ug/ml VZV (VZV strain Ellen) [Ug/ml] | IC50 Ug/ml HCMV (HCMV wild-type) [Ug/ml] | IC50 (HSV-1) [µg/mL] | IC50 (VZV strain Ellen) [µg/mL] | inhibition at 10 µg/mL (VZV strain Ellen) [%] | IC50 (HCMV wild-type) [µg/mL]
1 | COc1c(NC(=S)Nc2ccc(NC(C)=O)cc2)cc(Cl)c(C)c1Cl [Example 152, N-{4-[3-(3,5-Dichloro-2-methoxy-4-methyl-phenyl)-thioureido]-phenyl}-acetamide] | 2 | 70 | 7.5 | 0.8 | – | – | – | –
2 | CCOc1c(Cl)cc(NC(=S)Nc2ccc(NC(C)=O)cc2)cc1Cl [Example 176, N-{4-[3-(3,5-Dichloro-4-ethoxy-phenyl)-thioureido]-phenyl}-acetamide] | – | – | – | – | > 50 | > 10 | 24 | 0.5 (≈ 1.26 µM)
3 | CCCCOc1c(Cl)cc(NC(=S)Nc2ccc(NC(C)=O)cc2)cc1Cl [Example 177, N-{4-[3-(4-Butoxy-3,5-dichloro-phenyl)-thioureido]-phenyl}-acetamide] | – | – | – | – | > 50 | > 10 | 19 | 3.5 (≈ 8.21 µM)
4 | CC(=O)Nc1ccc(NC(=S)Nc2cc(Cl)c(OCc3ccccc3)c(Cl)c2)cc1 [Example 178, N-{4-[3-(4-Benzyloxy-3,5-dichloro-phenyl)-thioureido]-phenyl}-acetamide] | – | – | – | – | > 50 | > 10 | 32 | > 10
5 | COc1ccc(NC(=S)Nc2ccc(NC(C)=O)cc2)c(OC)c1Cl [Example 179, N-{4-[3-(3-Chloro-2,4-dimethoxy-phenyl)-thioureido]-phenyl}-acetamide] | – | – | – | – | 5 (≈ 13.2 µM) | > 10 | 35 | > 50
6 | COc1cc(OC)c(NC(=S)Nc2ccc(NC(C)=O)cc2)cc1I [Example 197, N-{4-[3-(5-Iodo-2,4-dimethoxy-phenyl)-thioureido]-phenyl}-acetamide] | – | – | – | – | 6 (≈ 12.7 µM) | > 15 | 59 | > 10
7 | COc1cc(OC)c(NC(=S)Nc2ccc(NC(C)=O)cc2)cc1F [Example 198, N-{4-[3-(5-Fluoro-2,4-dimethoxy-phenyl)-thioureido]-phenyl}-acetamide] | – | – | – | – | 9 (≈ 24.8 µM) | > 10 | 36 | > 50
8 | COc1cc(C)c(Cl)cc1NC(=S)Nc1ccc(NC(C)=O)cc1 [Example 199, N-{4-[3-(5-Chloro-2-methoxy-4-methyl-phenyl)-thioureido]-phenyl}-acetamide] | – | – | – | – | 1.2 (≈ 3.3 µM) | > 15 | 60 | > 10
9 | CCN(CC)c1ccc(NC(=S)Nc2ccc(NC(C)=O)cc2)cc1Cl [Example 202, N-{4-[3-(3-Chloro-4-diethylamino-phenyl)-thioureido]-phenyl}-acetamide] | – | – | – | – | 3 (≈ 7.67 µM) | > 10 | 18 | > 10
10 | CC(=O)Nc1ccc(NC(=S)Nc2ccc(N(C)C3CCCCC3)c(Cl)c2)cc1 [Example 203] | >10 | 22 | >10 | 2 | – | – | – | –
11 | CC(=O)Nc1ccc(NC(=S)Nc2ccc(N3CCOCC3)c(Cl)c2)cc1 [Example 205, N-{4-[3-(3-Chloro-4-morpholin-4-yl-phenyl)-thioureido]-phenyl}-acetamide] | – | – | – | – | > 50 | > 10 | 30 | 20 (≈ 49.4 µM)
12 | COc1cc(OCCCC#N)c(Cl)cc1NC(=S)Nc1ccc(NC(C)=O)cc1 [Example 211, N-(4-{3-[5-Chloro-2-methoxy-4-(4-nitrilo-butoxy)-phenyl]-thioureido}-phenyl)-acetamide] | – | – | – | – | 30 (≈ 69.3 µM) | > 10 | 35 | > 10
13 | COc1cc(OCC#N)c(Cl)cc1NC(=S)Nc1ccc(NC(C)=O)cc1 [Example 212, N-(4-{3-[5-Chloro-2-methoxy-4-(2-nitrilo-ethoxy)-phenyl]-thioureido}-phenyl)-acetamide] | – | – | – | – | > 50 | > 10 | 23 | 20 (≈ 49.4 µM)
14 | COc1cc(OCC#N)c(NC(=S)Nc2ccc(NC(C)=O)cc2)cc1Cl [Example 213, N-(4-{3-[5-Chloro-4-methoxy-2-(2-nitrilo-ethoxy)-phenyl]-thioureido}-phenyl)-acetamide] | – | – | – | – | 30 (≈ 74.1 µM) | > 10 | 20 | 15 (≈ 37 µM)
15 | COc1cc(OCCO)c(NC(=S)Nc2ccc(NC(C)=O)cc2)cc1Cl [Example 214, N-(4-{3-[5-Chloro-2-(2-hydroxy-ethoxy)-4-methoxy-phenyl]-thioureido}-phenyl)-acetamide] | – | – | – | – | 20 (≈ 48.8 µM) | > 10 | 20 | > 10
16 | COc1cc(OCCO)c(Cl)cc1NC(=S)Nc1ccc(NC(C)=O)cc1 [Example 215, N-(4-{3-[5-Chloro-4-(2-hydroxy-ethoxy)-2-methoxy-phenyl]-thioureido}-phenyl)-acetamide] | – | – | – | – | > 50 | > 10 | 30 | > 10
17 | COc1cc(OCC(=O)OC(C)(C)C)c(Cl)cc1NC(=S)Nc1ccc(NC(C)=O)cc1 [Example 216, {4-[3-(4-Acetylamino-phenyl)-thioureido]-2-chloro-5-methoxy-phenoxy}-acetic acid tert-butyl ester] | – | – | – | – | 35 (≈ 72.9 µM) | > 10 | 23 | > 10
18 | COC(=O)COc1cc(OC)c(NC(=S)Nc2ccc(NC(C)=O)cc2)cc1Cl [Example 217, {4-[3-(4-Acetylamino-phenyl)-thioureido]-2-chloro-5-methoxy-phenoxy}-acetic acid methyl ester] | – | – | – | – | > 50 | > 10 | 10 | > 10
19 | COc1cc(OCC(=O)OC(C)(C)C)c(NC(=S)Nc2ccc(NC(C)=O)cc2)cc1Cl [Example 218, {2-[3-(4-Acetylamino-phenyl)-thioureido]-4-chloro-5-methoxy-phenoxy}-acetic acid tert-butyl ester] | – | – | – | – | 15 (≈ 31.3 µM) | > 10 | 18 | > 10
20 | COc1cc(O)c(Cl)cc1NC(=S)Nc1ccc(NC(C)=O)cc1 [Example 223, N-{4-[3-(5-Chloro-4-hydroxy-2-methoxy-phenyl)-thioureido]-phenyl}-acetamide] | – | – | – | – | 14 (≈ 38.3 µM) | > 10 | 24 | > 50
21 | COc1cc(N2CCOCC2)c(NC(=S)Nc2ccc(NC(C)=O)cc2)cc1Cl [Example 226, N-{4-[3-(5-Chloro-4-methoxy-2-morpholin-4-yl-phenyl)-thioureido]-phenyl}-Acetamide] | – | – | – | – | > 50 | > 10 | 35 | > 50
22 | COc1cc(N(C)C)c(NC(=S)Nc2ccc(NC(C)=O)cc2)cc1Cl [Example 227, N-{4-[3-(5-Chloro-2-dimethylamino-4-methoxy-phenyl)-thioureido]-phenyl}-acetamide] | – | – | – | – | > 50 | > 10 | 32 | > 50
23 | COc1cc(N2CCCC2)c(NC(=S)Nc2ccc(NC(C)=O)cc2)cc1Cl [Example 228, N-{4-[3-(5-Chloro-4-methoxy-2-pyrrolidin-1-yl-phenyl)-thioureido]-phenyl}-acetamide] | – | – | – | – | 3 (≈ 7.16 µM) | > 10 | 35 | > 10
24 | COc1cc(N2CCCCC2)c(NC(=S)Nc2ccc(NC(C)=O)cc2)cc1Cl [Example 229, N-{4-[3-(5-Chloro-4-methoxy-2-piperidin-1-yl-phenyl)-thioureido]-phenyl}-acetamide] | – | – | – | – | 15 (≈ 34.6 µM) | > 10 | 35 | 7 (≈ 16.2 µM)
